Measured values taken from patent publication US6818662B2, “Pharmaceutical composition” (Taisho Pharmaceutical Co., Ltd., priority 2002, dated 2004).
Converted amounts (≈) assume the structure as drawn.

Tests used:
Format in all cases: physicochemical
[1] = Stability in acidic solution
Text: (§1) The present invention can be disclosed in more detail as follows. Since N-(3-chloro-4-morpholin-4-yl)phenyl-N′-hydroxyimidoformamidine was unstable in an acidic solution, solubilization by forming it into an acidic salt thereof was not proper. Furthermore, the solubility of N-(3-chloro-4-morpholin-4-yl)phenyl-N′-hydroxyimidoformamidine in 5% Tween 80, 10% polyethylene glycol, soybean oil and olive oil, which were used for forming it into micelles, co-solvents and lipid emulsion preparations, was not more than 0.5 mg/mL at 25° C. and was insufficient for forming it into these micelles, co-solvents and lipid emulsion preparations. […] Based on this unpredictable finding in which in the case of the sulfobutyl ether β-cyclodextrin solution, the drug is stable over light exposure and thus, it is convenient for actual use without a special care such as shading, the present invention has been accomplished.

[2] = Solubilization test; conditions: 25° C.
Experimental: An excess amount of N-(3-chloro-4-morpholin-4-yl)phenyl-N′-hydroxyimidoformamidine was added to 10% and 20% aqueous solutions of sulfobutyl ether β-cyclodextrin sodium salt (Captisol (trade name); average substitution degree is about 7) and purified water as a control, respectively. After shaking on a water bath adjusted at 25° C. for one day, the solubility of the drug was measured.

[3] = Solubility in vehicles for micelles, co-solvents and lipid emulsion preparations
Text: as §1

Compound: ON=CNc1ccc(N2CCOCC2)c(Cl)c1 [N-(3-chloro-4-morpholin-4-yl)phenyl-N′-hydroxyimidoformamidine]
- stability in an acidic solution [1]: unstable
- solubility ([2]; 10% aqueous solution of sulfobutyl ether β-cyclodextrin sodium salt): 3.57 mg/mL
- solubility ([2]; 20% aqueous solution of sulfobutyl ether β-cyclodextrin sodium salt): 7.67 mg/mL
- solubility ([2]; purified water (control), shaking one day): 0.08 mg/mL (≈ 313 µM)
- solubility ([3]; 5% Tween 80, 25° C.): not more than 0.5 mg/mL
- solubility ([3]; 10% polyethylene glycol, 25° C.): not more than 0.5 mg/mL
- solubility ([3]; olive oil, 25° C.): not more than 0.5 mg/mL
- solubility ([3]; soybean oil, 25° C.): not more than 0.5 mg/mL
